These compounds were tested against T1, monomeric Aβ1-42 (Homo sapiens, UniProt P05067) (assay: Surface plasmon resonance (SPR) binding of compounds to immobilized Aβ1-42 monomers (Biacore X100)). Details: compounds 0.1 nM to 300 nM, 25° C., steady-state analysis, repeated tests.
T1 construct: Aβ1-42 (#60-0-80, American Peptide, Sunnyvale, Calif. USA); purchased American Peptide, Sunnyvale, Calif; USA #60-0-80
Procedure: Aβ monomers were covalently coupled to one flow cell of CM7 sensor chips (GE Lifesciences, Uppsala, Sweden) via primary amines using the Amine Coupling Kit (GE Lifesciences, Uppsala, Sweden). As a control, ethanolamine was immobilized on the reference channel. […] One RU represents about 1 pg/mm^2 of the analytes on the surface matrix of the sensor chip.
Concentrations were tested in duplicate.
The RUs elicited by the compound injected into the ethanolamine control flow cell was set as reference response and subtracted from the RUs elicited by the same compound injected to the Aβ saturated flow cell. The relationships between each RU obtained at the steady state of binding (plateau of the binding curve) and each concentration of the compound were plotted.
After the analyte injection was stopped, HBS-EP buffer was flowed over the chip for 180 s to allow the bound analyte to dissociate from the immobilized Aβ and the dissociation curves were obtained.
The dissociation equilibrium constant KD of the analyte to the immobilized Aβ was determined from the steady-state levels estimating the maximum RU Rmax and calculating the KD as the concentration of the compound that elicited one-half of the Rmax.

T1 sequence (P05067 672-713 limits assumed): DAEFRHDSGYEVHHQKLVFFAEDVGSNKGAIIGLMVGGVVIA

Row | IC50 [nM] | Compound
1 | 0.5 | CC(C)(/C=C/[C@H](N)Cc1c[nH]c2ccccc12)C(N)=O [Example 3, (E)-(R)-5-Amino-6-(1H-indol-3-yl)-2,2-dimethyl-hex-3-enoic acid amide]
2 | 6.8 | CNC(=O)C(C)(C)/C=C/[C@H](N)Cc1c[nH]c2ccccc12 [Example 4, (E)-(R)-5-Amino-6-(1H-indol-3-yl)-2,2-dimethyl-hex-3-enoic-acid-methylamide]
3 | 42.1 | CC(=O)N[C@@H](/C=C/C(C)(C)C(=O)O)Cc1c[nH]c2ccccc12 [Example 5, (E)-(R)-5-Acetylamino-6-(1H-indol-3-yl)-2,2-dimethyl-hex-3-enoic-acid]
